Experimental data taken from publication PMC11822212, “High-throughput screening identifies Aurora kinase B as a critical therapeutic target for Merkel cell carcinoma” (Nature Communications, 2025).
Values joined by “and” are separate entries in the source; they are usually repeats but may differ in a detail not shown here. Identical values can stand only once. Like-named read-outs stand apart in the source and are kept apart here.

Assays:
[1] = system: MCC13 cells (VN-MCC); assay: qHTS cell viability (CellTiter-Glo, 72 h; primary and follow-up small molecule screen); format: cell-based, human
[2] = system: MCC26 cells (VN-MCC); assay: as above; format: cell-based, human
[3] = system: UISO cells (VN-MCC); assay: as above; format: cell-based, human
[4] = system: WAGA cells (VP-MCC); assay: as above; format: cell-based, human
[5] = system: MKL-1 cells (VP-MCC); assay: as above; format: cell-based, human
[6] = system: MKL-2 cells (VP-MCC); assay: as above; format: cell-based, human
[7] = system: HACAT cells; assay: qHTS cell viability (CellTiter-Glo, 72 h; primary screen), control cell line; format: cell-based, human
[8] = system: HEK293T cells; assay: as above; format: cell-based, human
[9] = system: NIH-3T3 cells; assay: as above; format: cell-based, mouse
[10] = system: CRL-7250 cells; assay: as above; format: cell-based
[11] = system: MCC cell lines (WAGA, MKL-1, MKL-2, MCC13, MCC26, UISO); assay: qHTS cell viability, all six MCC cell lines as a group (mean AUC, MCC.avg); format: cell-based, human
[12] = system: VP-MCC cell lines (WAGA, MKL-1, MKL-2); assay: qHTS cell viability, VP-MCC cell lines as a group (mean AUC, VP.MCC.avg); format: cell-based, human
[13] = system: VN-MCC cell lines (MCC13, MCC26, UISO); assay: qHTS cell viability, VN-MCC cell lines as a group (mean AUC, VN.MCC.avg); format: cell-based, human
[14] = system: control cell lines (HACAT, HEK293T, CRL-7250, NIH-3T3); assay: qHTS cell viability, control cell lines as a group (mean AUC, Control.avg); format: cell-based
[15] = system: six MCC cell lines and four control cell lines; assay: qHTS cell viability, all 10 cell lines screened; format: cell-based
[16] = MIPE library, 11-point DRC, sheet S2E
[17] = MIPE library, 11-point DRC, control cell line, sheet S2E

With `CCC(=O)OC1(c2ccccc2)CCN(C)CC1.Cl` the MCC13_AUC [1] was 464.627, the MCC26_AUC [2] was 456.799 and the UISO_AUC [3] was 451.795. It also gave a WAGA_AUC [4] of 438.281, an MKL1_AUC [5] of 398.305 and an MKL2_AUC [6] of 404.215. It also gave an HACAT_AUC [7] of 483.91, an HEK293T_AUC [8] of 479.823 and an NIH3T3_AUC [9] of 479.714. It also gave a CRL7250_AUC [10] of 443.177, an MCC_Avg_AUC [11] of 435.67 and a Control-VP-MCC [12] of 58.056. The VP-MCC_Avg_AUC [12] was 413.6, the Control-VN-MCC [13] was 13.9158 and the VN-MCC_Avg_AUC [13] was 457.741. For the same molecule, the Control_Avg_AUC [14] was 471.656 and the Control-MCC [15] was 35.9859.
Molecule `CNC(C)Cc1ccc2c(c1)OCO2.Cl` (centres unmarked) has an MCC13_AUC [1] of 451.345, an MCC26_AUC [2] of 414.843 and a UISO_AUC [3] of 441.906. For the same molecule, the WAGA_AUC [4] was 422.784, the MKL1_AUC [5] was 436.372 and the MKL2_AUC [6] was 446.935. The HACAT_AUC [7] was 490.316, the HEK293T_AUC [8] was 483.458 and the NIH3T3_AUC [9] was 493.81. It also gave a CRL7250_AUC [10] of 491.585, an MCC_Avg_AUC [11] of 435.698 and a Control-VP-MCC [12] of 54.4283. For the same molecule, the VP-MCC_Avg_AUC [12] was 435.364, the Control-VN-MCC [13] was 53.7607 and the VN-MCC_Avg_AUC [13] was 436.031. For the same molecule, the Control_Avg_AUC [14] was 489.792 and the Control-MCC [15] was 54.0945.
With `CC(=O)OC1(c2ccccc2)CCN(CCc2ccccc2)CC1` the MCC13_AUC [1] was 419.397, the MCC26_AUC [2] was 420.097 and the UISO_AUC [3] was 389.875. For the same molecule, the WAGA_AUC [4] was 388.929, the MKL1_AUC [5] was 375.288 and the MKL2_AUC [6] was 382.375. It also gave an HACAT_AUC [7] of 477.567, an HEK293T_AUC [8] of 449.554 and an NIH3T3_AUC [9] of 473.448. The CRL7250_AUC [10] was 457.662, the MCC_Avg_AUC [11] was 395.993 and 395.994 and the Control-VP-MCC [12] was 82.3602. The VP-MCC_Avg_AUC [12] was 382.197, the Control-VN-MCC [13] was 54.768 and the VN-MCC_Avg_AUC [13] was 409.79. For the same molecule, the Control_Avg_AUC [14] was 464.558 and the Control-MCC [15] was 68.5641.
With `COc1ccc(C(=O)CC(=O)c2ccc(C(C)(C)C)cc2)cc1` the MCC13_AUC [1, 16] was 495.434, the MCC13_AUC ([1]; area under the dose-response curve, MCC13 cells, AUC<450 = reduced viability) was 482.294 and the MCC26_AUC [2, 16] was 485.026. For the same molecule, the MCC26_AUC ([2]; area under the dose-response curve, MCC26 cells, AUC<450 = reduced viability) was 481.864, the UISO_AUC [3, 16] was 429.371 and the UISO_AUC ([3]; area under the dose-response curve, UISO cells, AUC<450 = reduced viability) was 482.124. For the same molecule, the WAGA_AUC [4, 16] was 305.979, the WAGA_AUC ([4]; area under the dose-response curve, WAGA cells, AUC<450 = reduced viability) was 381.481 and the MKL1_AUC [5, 16] was 339.212. The MKL1_AUC ([5]; area under the dose-response curve, MKL-1 cells, AUC<450 = reduced viability) was 411.648, the MKL2_AUC [6, 16] was 314.76 and the MKL2_AUC ([6]; area under the dose-response curve, MKL-2 cells, AUC<450 = reduced viability) was 386.921. The HACAT_AUC [7, 17] was 476.58, the HACAT_AUC ([7]; area under the dose-response curve, HACAT control cells, AUC<450 = reduced viability) was 467.786 and the HEK293T_AUC [8, 17] was 472.366. It also gave an HEK293T_AUC ([8]; area under the dose-response curve, HEK293T control cells, AUC<450 = reduced viability) of 465.048, an NIH3T3_AUC [9, 17] of 477.589 and an NIH3T3_AUC ([9]; area under the dose-response curve, NIH3T3 control cells, AUC<450 = reduced viability) of 482.946. The CRL7250_AUC [10, 17] was 416.272, the CRL7250_AUC ([10]; area under the dose-response curve, CRL7250 control cells, AUC<450 = reduced viability) was 453.419 and the MCC_Avg_AUC ([11]; MIPE library, mean AUC of six MCC cell lines, sheet S2E) was 394.964. The Control-VP-MCC ([12]; MIPE library, Control AUC minus VP-MCC AUC (therapeutic window), sheet S2E) was 140.718, the VP-MCC_Avg_AUC ([12]; MIPE library, mean AUC of VP-MCC cell lines, sheet S2E) was 319.984 and the Control-VN-MCC ([13]; MIPE library, Control AUC minus VN-MCC AUC (therapeutic window), sheet S2E) was -9.242. It also gave a VN-MCC_Avg_AUC ([13]; MIPE library, mean AUC of VN-MCC cell lines, sheet S2E) of 469.944, a Control_Avg_AUC ([14]; MIPE library, mean AUC of control cell lines, sheet S2E) of 460.702 and a Control-MCC ([15]; MIPE library, Control AUC minus MCC AUC (therapeutic window), sheet S2E) of 65.7381.
In the case of `COc1cc(C[C@@H](C)N)c(OC)cc1C.Cl`, the MCC13_AUC [1] is reported as 469.394, the MCC26_AUC [2] is reported as 411.829 and the UISO_AUC [3] is reported as 418.828. For the same molecule, the WAGA_AUC [4] was 120.519, the MKL1_AUC [5] was 46.808 and the MKL2_AUC [6] was 72.1855. It also gave an HACAT_AUC [7] of 438.262, an HEK293T_AUC [8] of 304.503 and an NIH3T3_AUC [9] of 358.481. The CRL7250_AUC [10] was 239.588, the MCC_Avg_AUC [11] was 256.594 and the Control-VP-MCC [12] was 255.371. The VP-MCC_Avg_AUC [12] was 79.8375, the Control-VN-MCC [13] was -98.1417 and the VN-MCC_Avg_AUC [13] was 433.35. It also gave a Control_Avg_AUC [14] of 335.209 and a Control-MCC [15] of 78.6147.
